# “Also recorded” adds a separate entry of the source.
# Assays:
# Format in all cases: cell-based, human
# MCF-7 cells [1] = experiment: Senescence-associated β-galactosidase (SA-β-gal) positive fraction of MCF-7 cells; conditions: 7-day treatment; same concentrations as for cell growth
# Method: The bars represent percentages of SA-P-gal+cells after 8 days of treatment with the indicated compounds (in triplicate). The compounds were used at the same concentrations as in FIG. 1.
# (§1) MCF-7 cells were plated at 5×10^5 per P100, and exposed on the next day to DMSO carrier, RA (100 nM), pan-RAR-specific ligands, LGD1550 (100 nM) and LG100815 (10 μM), pan-RXR specific agonist LGD1268, pan-RXR-specific antagonist LG101208, or drug-free DMSO carrier (control). The latter four compounds were provided by Ligand Pharmaceuticals, Inc. The effects of RAR ligands on the growth of MCF-7 cells were determined, as measured by the cell number after 7 days exposure to the compounds (FIG. 1) and on the fraction of cells expressing the senescence-associated β-galactosidase activity (SA-β-gal), a marker of senescence, after 7-day treatment with the compounds (FIG. 2).
# MCF-7 cells [2] = experiment: Effect on MCF-7 cell growth (cell number after 7 days exposure); conditions: LGD1550 100 nM, LG100815 10 μM, LGD1268 100 nM, LG101208 10 μM
# Method: The bars represent cell number after 7 days of culture with the addition of DMSO (control), 100 nM RA, 100 nM RAR agonist LGD1550, 100 nM RXR agonist LGD1268, 10 μM RAR antagonist LG100815, and 10 μM RXR antagonist LG101208. Experiments were done in triplicate, and the results are expressed relative to the average of the control.
# as §1
# MDA-MB-231 cells = experiment: Coculture of GFP-expressing MDA-MB-231 cells with RA-treated MCF-7 cells, MDA-MB-231 cell number by FACS
# Method: Each bar represents MDA-MB-231 cell number after five days of culture relative to cell number in the absence of MCF-7 or RA. Mean and standard deviation were calculated from three independent experiments. • (b) MDA-MB-231 cells (GFP-expressing) were plated as 1:1 mixtures with MCF-7 cells that were either untreated or treated for eight days with 100 nM, and grown in the presence of DMSO carrier or 100 nM RA. Each bar represents MDA-MB-231 cell relative to MDA-MB-231 cell number in coculture with untreated MCF-7 without RA. Mean and standard deviation were calculated from three independent experiments.
# Since retinoid-treated MCF-7 cells upregulate genes for secreted factors with different activities, a functional test was carried out to determine whether retinoid-treated MCF-7 cells express primarily pro-mitogenic or anti-mitogenic activity. In this assay, MCF-7 cells were mixed (1:1) with MDA-MB-231 breast carcinoma cells (insensitive to retinoids), which were transduced with Green Fluorescent Protein (GFP), providing the ability to distinguish and quantitate these cells by FACS analysis. The co-cultures were treated for five days with 100 nM RA. […] In contrast, retinoid treatment in coculture with MCF-7 decreased the number of MDA-MB-231 cells by about 25% (FIG. 4a). In another type of experiment, shown in FIG. 4b, MCF-7 cells were pre-treated for 8 days with RA, to allow for complete growth arrest and development of the senescent phenotype. The treated MCF-7 cells were collected by trypsinization and cocultured for three days with MDA-MB-231, in the presence or in the absence of RA. Coculture with RA-pretreated MCF-7 cells was sufficient to inhibit MDA-MB-231 cell growth by about 30%, as compared to coculture with untreated MCF-7 cells (FIG. 4B, left bar).
SMILES,fraction of cells expressing SA-β-gal (senescent phenotype) (MCF-7 cells [1]),MCF-7 cell growth (cell number) (MCF-7 cells [2]),"growth of MDA-MB-231 cells (MDA-MB-231 cells; 100 nM RA alone, without MCF-7 cells, five days)","decrease of the number of MDA-MB-231 cells (MDA-MB-231 cells; 100 nM RA in 1:1 coculture with MCF-7, five days)","inhibition of MDA-MB-231 cell growth (MDA-MB-231 cells; coculture for three days with MCF-7 pre-treated 8 days with RA, vs coculture with untreated MCF-7)","effect of addition of RA to the coculture on MDA-MB-231 growth inhibition (MDA-MB-231 cells; coculture with RA-pretreated MCF-7, 100 nM RA present, three days)"
Cc1cc2c(cc1C1(c3ccc(C(=O)O)cn3)CC1)C(C)(C)CCC2(C)C [LGD1268],did not induce the senescent phenotype,did not inhibit cell growth; also recorded: modest but reproducible increase in cell growth,,,,
"CC1=C(/C=C/C(C)=C/C=C/C(C)=C/C(=O)O)C(C)(C)CCC1 [RA, all-trans retinoic acid]",,,no effect,about 25%,about 30%,no significant effect

# Source: patent US20070292876A1, “METHODS FOR IDENTIFICATION OF COMPOUNDS THAT MIMIC THE SENESCENCE-INDUCING ACTIVITY OF RETINOIC ACID RECEPTOR LIGANDS” (Ordway Research Institute, Inc., priority 2006, published 2007)
